Earlier results in CN106749267A, “新的表皮生长因子受体抑制剂及其应用” (Nanjing Sanhome Pharmaceutical Co Ltd, priority 2015, dated 2017).
Like-named read-outs stand apart in the source and are kept apart here.

Row | SMILES | blood glucose increase side effect (in vivo) | blood glucose increase side effect (literature report, hyperglycemia from EGFR TKIs)
1 | C=CC(=O)Nc1cc(Nc2nccc(-c3cn(C)c4ccccc34)n2)c(OC)cc1N(C)CCN(C)C [AZD9291] | 一定程度的升高 | 
2 | C=CC(=O)Nc1cccc(Nc2nc(Nc3ccc(N4CCN(C(C)=O)CC4)cc3OC)ncc2C(F)(F)F)c1 [Rociletinib] |  | 一定程度的升高
